The target in one test is CDK2/Cyclin A2 (Homo sapiens, UniProt P24941). As to the kind of experiment: Inhibition of full length human CDK2/cyclin A using histone H1 as substrate in presence of [gamma-33P]ATP. The class given is protein-complex assay.
The next test deals with CDK9/cyclin T1 (Homo sapiens, UniProt P50750). As to the kind of experiment: Inhibition of recombinant full length human CDK9/cyclin T expressed in baculovirus infected Sf9 insect cells using YSPTSPSYSPTSPSYSPTSPSKKKK as substrate in presence of [gamma-33P]ATP.
Test [1] concerns the target Dual specificity tyrosine-phosphorylation-regulated kinase 1A (Rattus norvegicus, UniProt Q63470). In words: Inhibition of recombinant rat DYRK1A kinase domain expressed in bacteria using KKISGRLSPIMTEQ as substrate in presence of [gamma-33P]ATP.
Test [2] has as its target Serine/threonine-protein kinase pim-1 (Homo sapiens, UniProt P11309). In words: Inhibition of recombinant full length human PIM1 expressed in bacteria using histone H1 as substrate in presence of [gamma-33P]ATP.
The target of test [3] is T1, Serine/threonine-protein kinase haspin (Homo sapiens) (UniProt Q8TF76).
T1 sequence (whole entry): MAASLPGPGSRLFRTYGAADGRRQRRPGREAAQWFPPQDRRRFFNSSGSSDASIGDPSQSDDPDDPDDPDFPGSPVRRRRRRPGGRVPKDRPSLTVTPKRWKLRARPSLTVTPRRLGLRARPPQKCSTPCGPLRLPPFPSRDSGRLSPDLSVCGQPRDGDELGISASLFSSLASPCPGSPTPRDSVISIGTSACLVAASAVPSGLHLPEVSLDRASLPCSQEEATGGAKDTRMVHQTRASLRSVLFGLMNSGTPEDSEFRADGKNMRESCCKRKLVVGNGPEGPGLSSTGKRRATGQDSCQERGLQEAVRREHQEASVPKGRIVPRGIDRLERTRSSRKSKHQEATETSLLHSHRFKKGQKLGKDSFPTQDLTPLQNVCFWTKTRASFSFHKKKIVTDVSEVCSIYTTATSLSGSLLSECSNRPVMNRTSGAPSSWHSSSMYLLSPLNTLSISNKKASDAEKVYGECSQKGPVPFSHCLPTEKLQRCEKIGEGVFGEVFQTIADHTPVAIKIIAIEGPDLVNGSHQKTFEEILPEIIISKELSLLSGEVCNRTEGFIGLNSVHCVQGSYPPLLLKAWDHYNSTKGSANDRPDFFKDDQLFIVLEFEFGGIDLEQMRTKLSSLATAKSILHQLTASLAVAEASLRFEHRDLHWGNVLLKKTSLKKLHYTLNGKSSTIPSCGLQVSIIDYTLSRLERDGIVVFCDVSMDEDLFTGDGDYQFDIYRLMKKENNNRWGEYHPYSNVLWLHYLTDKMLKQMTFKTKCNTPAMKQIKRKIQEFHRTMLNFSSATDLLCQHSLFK
As to the kind of experiment: Inhibition of recombinant human haspin kinase domain expressed in bacteria assessed as residual activity at 10 uM using histone H3 (1 to 21 residues) peptide as substrate in presence of [gamma-33P]ATP.

A further test addresses Aurora kinase B (Homo sapiens, UniProt Q96GD4). In words: Inhibition of recombinant full length human aurora B expressed in baculovirus infected Sf9 insect cells assessed as residual activity at 10 uM using MBP as substrate in presence of [gamma-33P]ATP.
For test [4], the target named is Receptor-interacting serine/threonine-protein kinase 3 (Homo sapiens, UniProt Q9Y572). As to the kind of experiment: Inhibition of recombinant full length human RIPK3 expressed in baculovirus infected Sf9 insect cells assessed as residual activity at 10 uM using MBP as substrate in presence of [gamma-33P]ATP.
The target in test [5] is Cyclin-dependent kinase 5/CDK5 activator 1 (Homo sapiens) (UniProt Q00535+Q15078). As to the kind of experiment: Inhibition of recombinant full length human CDK5/p25 expressed in bacteria assessed as residual activity at 10 uM using histone H1 as substrate in presence of [gamma-33P]ATP.
The test system of the next test is HL-60(TB). In words: Cytotoxicity against human HL-60(TB) cells assessed as cell growth at 10 uM after 48 hrs by SRB assay relative to control. The format is functional. Particulars: HL-60, 48 h, read-out: Activity. A general note: The SRB assay estimates cell density from bound dye.
The next test relates to K562. As to the kind of experiment: Cytotoxicity against human K562 cells assessed as cell growth at 10 uM after 48 hrs by SRB assay relative to control. The class given is functional. The following applies: K562, 48 h, read-out: Activity.
For a further test, the system named is NCI-H23. As to the kind of experiment: Cytotoxicity against human NCI-H23 cells assessed as cell growth at 10 uM after 48 hrs by SRB assay relative to control. The class given is functional. The following applies: NCI-H23, 48 h, read-out: Activity.
The next test concerns NCI-H460. As to the kind of experiment: Cytotoxicity against human NCI-H460 cells assessed as cell growth at 10 uM after 48 hrs by SRB assay relative to control. The class given is functional. Particulars: NCI-H460, 48 h, read-out: Activity.
For the next test, the system named is SF-295. As to the kind of experiment: Cytotoxicity against human SF295 cells assessed as cell growth at 10 uM after 48 hrs by SRB assay relative to control. The format is functional. The following applies: SF-295, 48 h, read-out: Activity.
The next test deals with MDA-MB-435. In words: Cytotoxicity against human MDA-MB-435 cells assessed as cell growth at 10 uM after 48 hrs by SRB assay relative to control. The format is functional. Particulars: MDA-MB-435, 48 h, read-out: Activity.
The next test relates to UACC-62. In words: Cytotoxicity against human UACC62 cells assessed as cell growth at 10 uM after 48 hrs by SRB assay relative to control. The class given is functional. Particulars: UACC-62, 48 h, read-out: Activity.
A further test relates to IGROV-1. As to the kind of experiment: Cytotoxicity against human IGROV1 cells assessed as cell growth at 10 uM after 48 hrs by SRB assay relative to control. The class given is functional. Particulars: IGROV-1, 48 h, read-out: Activity.
The subject of another test is OVCAR-8. As to the kind of experiment: Cytotoxicity against human OVCAR8 cells assessed as cell growth at 10 uM after 48 hrs by SRB assay relative to control. The format is functional. The following applies: OVCAR-8, 48 h, read-out: Activity.
A further test concerns ACHN. As to the kind of experiment: Cytotoxicity against human ACHN cells assessed as cell growth at 10 uM after 48 hrs by SRB assay relative to control. The class given is functional. The following applies: read-out: Activity.
The test system of another test is CAKI-1. In words: Cytotoxicity against human Caki1 cells assessed as cell growth at 10 uM after 48 hrs by SRB assay relative to control. The format is functional. The following applies: CAKI-1, 48 h, read-out: Activity.
The next test concerns PC-3. As to the kind of experiment: Cytotoxicity against human PC3 cells assessed as cell growth at 10 uM after 48 hrs by SRB assay relative to control. The format is functional. The following applies: PC-3, 48 h, read-out: Activity.
A further test concerns DU-145. In words: Cytotoxicity against human DU145 cells assessed as cell growth at 10 uM after 48 hrs by SRB assay relative to control. The class given is functional. Particulars: DU-145, 48 h, read-out: Activity.
The test system of another test is MCF7. In words: Cytotoxicity against human MCF7 cells assessed as cell growth at 10 uM after 48 hrs by SRB assay relative to control. The following applies: MCF7, 48 h, read-out: Activity. The class given is functional.
In a further test the test system is COLO 205. In words: Cytotoxicity against human COLO205 cells assessed as cell growth at 10 uM after 48 hrs by SRB assay relative to control. The format is functional. Particulars: COLO 205, 48 h, read-out: Activity.
The next test has as its system CCRF-CEM. As to the kind of experiment: Cytotoxicity against human CCRF-CEM cells assessed as cell growth at 10 uM after 48 hrs by SRB assay relative to control. The class given is functional. Particulars: read-out: Activity.

Structures are written as SMILES. pIC50: −log10 of the molar value. Some results are limits rather than exact numbers.

Chain of Aurora kinase B (Q96GD4 whole entry): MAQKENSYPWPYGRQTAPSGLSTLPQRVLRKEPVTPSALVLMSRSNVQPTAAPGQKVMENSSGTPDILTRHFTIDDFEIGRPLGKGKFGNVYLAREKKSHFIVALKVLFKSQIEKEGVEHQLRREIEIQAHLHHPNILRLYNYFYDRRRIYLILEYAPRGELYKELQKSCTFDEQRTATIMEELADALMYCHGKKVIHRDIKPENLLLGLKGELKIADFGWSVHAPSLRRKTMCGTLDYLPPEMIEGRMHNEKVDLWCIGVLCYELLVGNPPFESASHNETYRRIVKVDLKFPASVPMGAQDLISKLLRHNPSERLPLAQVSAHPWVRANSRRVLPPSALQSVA
Chain of Receptor-interacting serine/threonine-protein kinase 3 (Q9Y572 whole entry, looked up): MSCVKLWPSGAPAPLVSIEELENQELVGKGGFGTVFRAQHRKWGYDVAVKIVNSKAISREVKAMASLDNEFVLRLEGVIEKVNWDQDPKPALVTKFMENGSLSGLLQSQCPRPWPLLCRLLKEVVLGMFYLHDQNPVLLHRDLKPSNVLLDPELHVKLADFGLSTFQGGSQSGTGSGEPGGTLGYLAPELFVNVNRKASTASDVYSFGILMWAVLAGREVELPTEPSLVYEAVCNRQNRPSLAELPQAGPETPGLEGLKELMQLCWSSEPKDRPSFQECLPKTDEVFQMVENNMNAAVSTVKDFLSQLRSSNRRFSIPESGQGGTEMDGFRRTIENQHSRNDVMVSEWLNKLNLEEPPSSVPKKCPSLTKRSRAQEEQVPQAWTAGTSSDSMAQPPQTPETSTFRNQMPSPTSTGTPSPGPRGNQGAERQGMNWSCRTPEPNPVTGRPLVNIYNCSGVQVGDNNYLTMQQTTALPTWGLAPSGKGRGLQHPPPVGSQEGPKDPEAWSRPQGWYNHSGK
Chain of CDK9/cyclin T1 (O60563 whole entry, the tested form may be a part): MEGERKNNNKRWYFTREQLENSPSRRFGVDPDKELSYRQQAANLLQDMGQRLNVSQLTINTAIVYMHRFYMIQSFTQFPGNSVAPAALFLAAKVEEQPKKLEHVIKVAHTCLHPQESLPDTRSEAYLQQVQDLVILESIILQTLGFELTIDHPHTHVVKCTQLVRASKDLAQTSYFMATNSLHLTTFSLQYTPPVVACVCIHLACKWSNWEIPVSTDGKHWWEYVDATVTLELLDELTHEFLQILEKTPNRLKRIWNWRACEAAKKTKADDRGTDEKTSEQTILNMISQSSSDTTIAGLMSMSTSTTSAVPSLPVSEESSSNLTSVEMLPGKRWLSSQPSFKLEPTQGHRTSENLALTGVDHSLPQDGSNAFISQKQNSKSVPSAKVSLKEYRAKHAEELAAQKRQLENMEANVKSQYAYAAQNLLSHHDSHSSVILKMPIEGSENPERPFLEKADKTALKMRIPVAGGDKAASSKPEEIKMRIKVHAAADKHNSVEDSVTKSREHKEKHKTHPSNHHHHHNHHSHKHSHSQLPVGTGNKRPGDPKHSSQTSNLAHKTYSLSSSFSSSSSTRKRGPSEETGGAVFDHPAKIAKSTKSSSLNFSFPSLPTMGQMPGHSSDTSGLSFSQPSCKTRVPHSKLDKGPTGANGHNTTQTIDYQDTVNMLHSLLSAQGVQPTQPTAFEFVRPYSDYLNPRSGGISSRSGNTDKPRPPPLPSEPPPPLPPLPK
Chain of CDK9/cyclin T1 (P50750 whole entry, the tested form may be a part): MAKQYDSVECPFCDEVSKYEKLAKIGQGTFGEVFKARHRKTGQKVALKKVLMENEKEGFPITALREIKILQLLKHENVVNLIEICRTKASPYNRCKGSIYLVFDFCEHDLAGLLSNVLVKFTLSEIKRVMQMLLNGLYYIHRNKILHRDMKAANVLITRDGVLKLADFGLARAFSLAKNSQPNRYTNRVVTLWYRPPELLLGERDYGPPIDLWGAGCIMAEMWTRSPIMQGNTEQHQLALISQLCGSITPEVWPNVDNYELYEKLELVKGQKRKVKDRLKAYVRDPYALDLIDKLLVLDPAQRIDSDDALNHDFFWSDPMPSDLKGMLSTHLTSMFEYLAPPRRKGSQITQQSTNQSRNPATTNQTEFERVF
Chain of Cyclin-dependent kinase 5/CDK5 activator 1 (Homo sapiens) (Q00535 whole entry): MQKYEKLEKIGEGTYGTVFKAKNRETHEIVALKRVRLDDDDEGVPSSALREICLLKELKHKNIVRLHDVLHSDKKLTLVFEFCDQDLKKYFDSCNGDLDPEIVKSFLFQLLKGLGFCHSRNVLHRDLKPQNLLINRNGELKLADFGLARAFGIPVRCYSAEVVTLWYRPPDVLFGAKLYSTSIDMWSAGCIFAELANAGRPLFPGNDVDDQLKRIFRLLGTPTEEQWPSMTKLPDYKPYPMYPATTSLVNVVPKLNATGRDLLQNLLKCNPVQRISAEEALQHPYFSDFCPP
Chain of Cyclin-dependent kinase 5/CDK5 activator 1 (Homo sapiens) (Q15078 99-307 partner limits assumed): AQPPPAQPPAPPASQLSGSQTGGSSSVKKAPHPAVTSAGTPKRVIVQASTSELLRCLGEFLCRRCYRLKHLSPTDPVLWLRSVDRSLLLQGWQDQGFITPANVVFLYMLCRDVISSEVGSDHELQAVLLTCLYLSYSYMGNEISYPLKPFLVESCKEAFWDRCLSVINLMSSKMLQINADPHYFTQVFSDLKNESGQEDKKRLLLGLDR
Chain of Serine/threonine-protein kinase pim-1 (P11309 whole entry): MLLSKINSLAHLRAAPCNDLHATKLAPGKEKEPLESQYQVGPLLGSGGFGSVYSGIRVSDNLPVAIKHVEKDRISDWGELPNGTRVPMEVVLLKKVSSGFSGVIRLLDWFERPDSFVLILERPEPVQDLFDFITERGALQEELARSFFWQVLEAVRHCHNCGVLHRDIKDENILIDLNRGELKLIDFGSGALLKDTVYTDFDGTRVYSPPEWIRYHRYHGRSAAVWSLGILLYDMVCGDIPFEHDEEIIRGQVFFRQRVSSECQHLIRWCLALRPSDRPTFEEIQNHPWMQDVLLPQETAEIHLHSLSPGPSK

Consider `CC(C)n1cc(C2=C(c3cn(C)c4ccccc34)C(=O)N(O)C2=O)c2ccccc21`, for which the pIC50 – broadly, the IC50 on a negative log10 scale, so that one unit is a factor of ten – at CDK2/Cyclin A2 was 5.15; on CDK9/cyclin T1, 5.82; in test [1], under 5.00; in test [2] it was under 5.00. Also, the Activity in test [3] came to 127%; on Aurora kinase B it was 95%; in [4], 103%; in test [5] it was 34%. Besides, the growth at 10 µM was 98.7% in the test with HL-60(TB); 77.7% in the test with K562; 81.8% in the test on NCI-H23; 98.3% in the test on NCI-H460; 101% with SF-295; 104% in the test with MDA-MB-435. Also, the growth at 10 µM in the test with UACC-62 was found to be 78.2%; in the test with IGROV-1, 96.2%; in the test with OVCAR-8, 94.8%; in the test with ACHN, 88%; with CAKI-1 it was 72.7%; with PC-3, 88.4%. Also, the results for the growth at 10 µM in the test with DU-145, with MCF7 and in the test on COLO 205 were 192%, 91.6% and 101%, respectively.

For the compound `Cn1cc(C2=C(c3cn(CCCCCC(=O)O)c4ccccc34)C(=O)N(O)C2=O)c2ccccc21`, the negative logarithm of the IC50 (pIC50) is 5.40 on CDK2/Cyclin A2, 6.15 at CDK9/cyclin T1, 6.00 in [1] and under 5.00 in test [2]. Moreover, the Activity came to 103% in [3], 71% on Aurora kinase B, 106% in [4] and 34% in test [5]. Besides, the growth at 10 µM in the test on CCRF-CEM is 84.4%; in the test with HL-60(TB), 103%; in the test on K562, 103%; with NCI-H23, 95.2%; with NCI-H460 it was 108%; in the test with SF-295, 102%. The growth at 10 µM in the test with MDA-MB-435 turned out to be 102%; with UACC-62 it was 99%; in the test on IGROV-1, 103%; in the test on OVCAR-8 it was 87.7%; in the test with ACHN it was 92.9%; with CAKI-1, 86.8%. The growth at 10 µM stood at 76.6% in the test with PC-3, 109% in the test on DU-145, 90% in the test with MCF7 and 109% in the test with COLO 205.

Consider `N#CCCCCCn1cc(C2=C(c3cn(CCCCCC#N)c4ccccc34)C(=O)N(O)C2=O)c2ccccc21`, for which the pIC50 (on CDK2/Cyclin A2; at CDK9/cyclin T1; in [1]; in test [2]) was under 5.00 in each case. Moreover, the Activity in [3] came out at 99%; on Aurora kinase B, 75%; in [4] it was 109%; in [5], 75%. Moreover, the growth at 10 µM was 8 to 54.2% with CCRF-CEM; 15 to 33.9% in the test on K562; 38 to 76.9% with NCI-H23; 28 to 72.7% with NCI-H460; 35 to 85% in the test on SF-295; 14 to 53.3% with UACC-62. The growth at 10 µM with IGROV-1 lay in the range of 28 to 66.8%; in the test on OVCAR-8, 55 to 87.6%; with ACHN, 45 to 81.7%; in the test with CAKI-1 it was 65 to 67%; in the test on PC-3, 29 to 70.3%; in the test on DU-145, 80 to 101%. In addition, the growth at 10 µM in the test with MCF7 is 14 to 39.9%; with COLO 205, 74 to 91.7%.

Turning to `N#CCCCCCn1cc(C2=C(c3cn(CCCCCC#N)c4ccccc34)C(=O)NC2=O)c2ccccc21`, the pIC50 on CDK2/Cyclin A2 is 5.60; on CDK9/cyclin T1 it was 6.38; in test [1] it was 6.21; in [2], under 5.00. The Activity in test [3] is 134%; on Aurora kinase B, 83%; in test [4] it was 100%; in [5], 46%. The growth at 10 µM is 73.5% with CCRF-CEM; 97.1% with NCI-H23; 86.8% in the test on NCI-H460; 66.2% in the test with SF-295; 105% in the test on MDA-MB-435; 99.3% in the test on UACC-62. The growth at 10 µM stood at 124% in the test on IGROV-1; 89.9% in the test on OVCAR-8; 87% in the test with ACHN; 82.5% in the test on CAKI-1; 58% with PC-3; 100% in the test with DU-145. Moreover, the growth at 10 µM in the test on MCF7 was determined as 48.9%; in the test on COLO 205, 73.8%.

`Cn1cc(C2=C(c3cn(C)c4ccccc34)C(=O)N(O)C2=O)c2ccccc21`: the pIC50 at CDK2/Cyclin A2 is under 5.00; at CDK9/cyclin T1, 5.05; in test [1], under 5.00; in test [2], under 5.00. In addition, the Activity in [3] was 118%; at Aurora kinase B, 84%; in test [4], 100%; in [5], 82%. Besides, the growth at 10 µM came to 87.1% with HL-60(TB); 100% in the test with K562; 99.5% in the test on NCI-H460; 104% in the test with SF-295; 94.9% with MDA-MB-435; 109% in the test with IGROV-1. For the same compound, the growth at 10 µM was determined as 96.5% in the test on OVCAR-8; 101% in the test on ACHN; 90.1% in the test on CAKI-1; 123% in the test with DU-145; 86.2% in the test with MCF7; 104% in the test on COLO 205.

These data come from ChEMBL document CHEMBL4229455, “Synthesis and anticancer activity of novel bisindolylhydroxymaleimide derivatives with potent GSK-3 kinase inhibition” (Bioorg Med Chem, 2018).
